The target of assay [1] is Prothrombin (Homo sapiens, UniProt P00734). The assay is described as follows: Binding affinity towards thrombin.
Assay [2] concerns the target Serine protease 1 (Homo sapiens, UniProt P07477). The experiment in a line: Binding affinity towards trypsin.
In assay [3] the target is Coagulation factor X (Homo sapiens, UniProt P00742). The experiment in a line: In vitro binding affinity for human Coagulation factor X.
Coagulation factor X, sequence (P00742 41-179 limits assumed): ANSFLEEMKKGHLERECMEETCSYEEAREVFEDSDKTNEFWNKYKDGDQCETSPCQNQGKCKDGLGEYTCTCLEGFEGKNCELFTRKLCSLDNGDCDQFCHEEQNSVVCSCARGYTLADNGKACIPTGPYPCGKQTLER
Coagulation factor X, sequence (P00742 235-488 limits assumed): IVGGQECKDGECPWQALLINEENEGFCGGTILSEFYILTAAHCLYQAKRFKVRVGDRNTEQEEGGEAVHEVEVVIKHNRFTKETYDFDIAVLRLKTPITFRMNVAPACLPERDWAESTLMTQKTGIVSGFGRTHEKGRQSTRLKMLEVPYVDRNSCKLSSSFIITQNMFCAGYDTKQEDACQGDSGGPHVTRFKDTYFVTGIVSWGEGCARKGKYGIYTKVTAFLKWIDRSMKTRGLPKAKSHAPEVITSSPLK

Serine protease 1, sequence (P07477 whole entry): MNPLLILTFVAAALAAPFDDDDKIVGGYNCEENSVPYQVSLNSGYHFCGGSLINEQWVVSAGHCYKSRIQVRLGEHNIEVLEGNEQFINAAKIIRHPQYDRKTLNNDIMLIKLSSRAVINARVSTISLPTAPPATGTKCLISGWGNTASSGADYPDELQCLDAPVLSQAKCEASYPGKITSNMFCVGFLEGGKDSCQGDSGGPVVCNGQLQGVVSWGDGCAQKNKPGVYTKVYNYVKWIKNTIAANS

For `O=C1CN(S(=O)(=O)c2cc3ccc(Cl)cc3s2)CCN1Cc1nc2ccncc2[nH]1` [4-(6-Chloro-benzo[b]thiophene-2-sulfonyl)-1-(1H-imidazo[4,5-c]pyridin-2-ylmethyl)-piperazin-2-one], the Ki in assay [1] is above 3.9 µM; in assay [2], above 2.9 µM; in assay [3] it was above 1.2 µM. In turn, `O=C1CN(S(=O)(=O)c2ccc(-c3ccc(Cl)cc3)cc2)CCN1Cc1cc2cnccc2[nH]1` [4-(4'-Chloro-biphenyl-4-sulfonyl)-1-(1H-pyrrolo[3,2-c]pyridin-2-ylmethyl)-piperazin-2-one] came in with a Ki in assay [3] above 1.2 µM. On the same count and under the same terms, under `O=C1CN(S(=O)(=O)c2cc3cccnc3s2)CCN1Cc1cc2cnccc2[nH]1` [1-(1H-Pyrrolo[3,2-c]pyridin-2-ylmethyl)-4-(thieno[2,3-b]pyridine-2-sulfonyl)-piperazin-2-one] stands above 1.2 µM; under `O=C1CN(S(=O)(=O)c2sc3ccccc3c2Cl)CCN1Cc1cc2cnccc2[nH]1` [4-(3-Chloro-benzo[b]thiophene-2-sulfonyl)-1-(1H-pyrrolo[3,2-c]pyridin-2-ylmethyl)-piperazin-2-one], above 1.2 µM. For the molecule `O=C1CN(S(=O)(=O)c2cc3ccc(Cl)cc3s2)CCN1Cc1cc2ncccc2[nH]1` [4-(6-Chloro-benzo[b]thiophene-2-sulfonyl)-1-(1H-pyrrolo[3,2-b]pyridin-2-ylmethyl)-piperazin-2-one], the Ki in assay [1] is above 3.9 µM; in assay [2], above 2.9 µM; in assay [3], above 1.2 µM. In turn, `COc1cc(C=CS(=O)(=O)N2CCN(Cc3cc4cnccc4[nH]3)C(=O)C2)sc1Cl` [4-[2-(5-Chloro-4-methoxy-thiophen-2-yl)-ethenesulfonyl]-1-(1H-pyrrolo[3,2-c]pyridin-2-ylmethyl)-piperazin-2-one] registered a Ki in assay [3] above 1.2 µM. With `O=C1CN(S(=O)(=O)c2cc3ccc(Cl)cc3s2)CCN1Cc1cc2c(=O)[nH]ccc2[nH]1` [2-[4-(6-Chloro-benzo[b]thiophene-2-sulfonyl)-2-oxo-piperazin-1-ylmethyl]-1,5-dihydro-pyrrolo[3,2-c]pyridin-4-one], the Ki was above 3.9 µM in assay [1], above 2.9 µM in assay [2] and above 1.2 µM in assay [3]. `O=C1CN(S(=O)(=O)c2cc3ncccc3s2)CCN1Cc1cc2cnccc2[nH]1` [1-(1H-Pyrrolo[3,2-c]pyridin-2-ylmethyl)-4-(thieno[3,2-b]pyridine-2-sulfonyl)-piperazin-2-one]: the Ki in assay [3] is above 1.2 µM.
